Test results published in patent US20240327423A1, “A SERIES OF PYRROLE DERIVATIVES AND THEIR PREPARATION METHOD AND THERAPEUTIC USE” (SHENZHEN SUNGENING BIO-MEDICAL CO., LTD, priority 2020, published 2024).
“And” between values parts separate entries of the source, which are not always exact repeats. Equal entries are not always repeated. Where two headings read alike, the source gives them in different places.

Tests used:
[1] = test system: Aspergillus fumigatus ATCCMYA-4690 (AF293); assay: Survival rate experiment II of mouse bloodstream infection model with Aspergillus fumigatus; assay type: in vivo; settings: for day 7 survival rate: 3 mg/kg (bid) orally for 6 days, started 24 hours after infection; for survival time of mouses: oral, bid
Experimental: Test Case 6: Survival Rate Experiment II of Mouse Bloodstream Infection Model with Aspergillus fumigatus • Animal for experiment: male CD-1 mouse, 6-8 weeks old, 10 animals per group. • Induction of immunosuppression: the day of infection is defined as day 0, and mouses are injected intraperitoneally with corresponding doses of cyclophosphamide on day −4 (150 mg/kg), day −1 (100 mg/kg), and day 2 (100 mg/kg), respectively. • Microbial pathogen: Aspergillus fumigatus ATCCMYA-4690 (AF293). • Collection conditions of inoculum: culture on SDA culture plates, incubate at 25° C. for at least 7 days, collect with PBS+0.1% Tween 20, and count microscopically; • Inoculation level, route and volume: 3.90E+05 CFU/mouse, tail vein injection, injection volume of 100 μL/mouse; • Treatment: Treatment is started 24 hours after infection, and test compounds are dissolved in PEG400 (0.3 mg/mL), […] The administrated mouses are observed for 8 hours.

[2] = Pharmacokinetic test in SD rats, single oral administration; assay type: in vivo; settings: 10 mg/kg, single oral administration 10 mg/kg, test compound mixed with F901318, plasma; for Cmax: read-out: Cmax; for Tmax: read-out: Tmax; for half-life: read-out: T½ (converted)
Experimental: Pharmacokinetic study is performed on SD rats receiving single oral administration of each test compound mixed with F901318 (10 mg/kg, 3 rats per group). Test compounds and F901318 are dissolved with […]+10% solutol+85% saline, vortexed for 1-2 mins and ultra-sonicated for 5-10 mins to form a colorless clear drug solution. The animals are fasted overnight before oral administration, and resumed feeding 4 hours after administration. After oral administration, pharmacokinetic samples are collected from orbital blood of SD rats at 0.083 h, 0.25 h, 0.5 h, 1 h, 2 h, 4 h, 6 h, 8 h, and 24 h, and three whole blood samples are collected at each time point in a volume of 0.2-0.3 mL. Blood samples are placed on ice immediately after collected, and the plasma is separated by centrifugation within 15 min (centrifugation conditions: 8000 rpm, 1 min, and at room temperature).
The collected plasma is stored at −20° C. prior to analysis. Transfer 20 μL of plasma sample into an 0.5 mL EP tube, add 200 μL of working internal standard solution (blank group is without internal standard, using the same volume of solvent instead), vortex and mix for 3 min centrifuge at 13500 rpm for 10 min, take 100 μL of supernatant and analyze with LC-MS/MS.

[3] = immunosuppressed male CD-1 mouse
[4] = SD, rat, plasma, po, read-out: AUC

Row | SMILES | day 7 survival rate [1, 3] [%] | survival time of mouses [1, 3] | AUC [2, 4] [ng·h/mL] | AUC [2] | Cmax ([2]; SD, rat, plasma, po) [ng/mL] | Tmax ([2]; SD, rat, plasma, po) [h] | half-life ([2]; SD, rat, plasma, po) [h] | survival rate ([1]; immunosuppressed male CD-1 mouse, 10 mg/kg (bid)) [%] | dose dependence of survival ([1]; three doses of 1 mg/kg, 3 mg/kg and 10 mg/kg)
1 | Cc1cc(-c2ccccc2)c(C(=O)C(=O)Nc2ccc(N3CCN(c4ncc(F)cn4)CC3)cc2)n1C [Example F901318, reference compound] | 0 | prolong the survival time | 7540 | 9170.038 ng·h/mL and 7652.703 ng·h/mL and 9641.325 ng·h/mL | – | – | – | – | –
2 | Cc1cc(-c2ccccc2)c(C(=O)C(=O)Nc2cc(F)c3c(c2)OC[C@H]2CN(c4ncc(F)cn4)CCN32)n1C [Example 5] | – | – | 16000 | – | 1930 | 1 | 4.29 | – | –
3 | Cc1cc(-c2ccccc2)c(C(=O)C(=O)Nc2ccc3c(c2)C[C@H]2CN(c4ncc(F)cn4)CCN32)n1C [Example 33, (S)-2-(1,5-dimethyl-3-phenyl-1H-pyrrol-2-yl)-N-(2-(5-fluoropyrimidin-2-yl)-1,2,3,4,10,10a-hexahydropyrazino[1,2-a]indol-8-yl)-2-oxoacetamide] | 30 | prolong the survival time | 36100 | – | 3490 | 1 | 7.52 | 80 | dose-dependent relationship
